# Results published in US9169199B2, “Cycloalkyl guanidine F1F0-ATPase inhibitors and therapeutic uses thereof” (Lycera Corporation, priority 2010, dated 2015).
# Assays:
# F1F0-ATPase = target: T1, F1F0-ATPase (Bos taurus, UniProt P13621); assay: Inhibition of ATP synthesis by the F1F0-ATPase; format: biochemical
# T1 construct: from tissue
# Description: (§1) Compounds in Example 4 above were tested for activity against F1F0-ATPase by measuring ATP synthesis. In addition, the compounds were assessed for cytotoxicity in Ramos cells. Inhibition of ATP synthesis by the F1F0-ATPase and cytotoxicity in Ramos cells were measured according to the procedures described in K. M. Johnson et al. Chemistry & Biology 2005, 12, 485-496.
# Ramos cells = assay: Cytotoxicity in Ramos cells; format: cell-based; conditions: Homo sapiens, read-out: Ramos cell EC50
# Description: as §1
IC50 (F1F0-ATPase),Structure (SMILES),EC50 (Ramos cells)
< 10 µM,O=C(/N=C(/NC1CCCC1)N[C@H]1CC[C@H](Nc2ncccn2)CC1)c1ccc(Cl)c(F)c1 [Compound 143],< 10 µM
< 10 µM,CC(C)(C)CN/C(=N/C(=O)c1ccc(Cl)c(F)c1)N[C@H]1CC[C@H](Nc2ncccn2)CC1 [Compound 144],< 10 µM
> 10 µM,CCOC(=O)NC1CCC(N/C(=N\C(=O)c2ccc(F)c(S(C)(=O)=O)c2)NCc2ccc(F)cc2Cl)CC1 (stereo not drawn) [Compound 145],> 10 µM
> 10 µM,CCOC(=O)NC1CCC(N/C(=N\C(=O)c2ccc(F)c(S(C)(=O)=O)c2)Nc2cc(F)cc(Cl)c2)CC1 (stereo not drawn) [Compound 146],> 10 µM
< 10 µM,COC(=O)NC1CCC(N/C(=N\C(=O)c2ccc(C)cc2)Nc2cc(F)cc(Cl)c2)CC1 (stereo not drawn) [Compound 147],< 10 µM
< 10 µM,Cc1ccc(C(=O)/N=C(/Nc2cc(F)cc(Cl)c2)NC2CCC(NC(=O)c3ccccc3)CC2)cc1 (stereo not drawn) [Compound 148],< 10 µM
< 10 µM,CCOC(=O)NC1CCC(N/C(=N\C(=O)c2ccccc2)Nc2cc(F)cc(Cl)c2)CC1 (stereo not drawn) [Compound 149],< 10 µM
< 10 µM,COC(=O)NC1CCC(N/C(=N\C(=O)c2ccccc2)Nc2cc(F)cc(Cl)c2)CC1 (stereo not drawn) [Compound 150],> 10 µM
< 10 µM,O=C(/N=C(/Nc1cc(F)cc(Cl)c1)NC1CCC(NC(=O)c2ccccc2)CC1)c1ccccc1 (stereo not drawn) [Compound 151],< 10 µM
< 10 µM,CCOC(=O)NC1CCC(N/C(=N\C(=O)c2ccc(OC)cc2)Nc2cc(F)cc(Cl)c2)CC1 (stereo not drawn) [Compound 152],< 10 µM
< 10 µM,COC(=O)NC1CCC(N/C(=N\C(=O)c2ccc(OC)cc2)Nc2cc(F)cc(Cl)c2)CC1 (stereo not drawn) [Compound 153],< 10 µM
< 10 µM,COc1ccc(C(=O)/N=C(/Nc2cc(F)cc(Cl)c2)NC2CCC(NC(=O)c3ccccc3)CC2)cc1 (stereo not drawn) [Compound 154],< 10 µM
< 10 µM,CCOC(=O)NC1CCC(N/C(=N\C(=O)c2cccc(OC)c2)Nc2cc(F)cc(Cl)c2)CC1 (stereo not drawn) [Compound 155],< 10 µM
< 10 µM,COC(=O)NC1CCC(N/C(=N\C(=O)c2cccc(OC)c2)Nc2cc(F)cc(Cl)c2)CC1 (stereo not drawn) [Compound 156],< 10 µM
< 10 µM,COc1cccc(C(=O)/N=C(/Nc2cc(F)cc(Cl)c2)NC2CCC(NC(=O)c3ccccc3)CC2)c1 (stereo not drawn) [Compound 157],< 10 µM
< 10 µM,CCOC(=O)NC1CCC(N/C(=N\C(=O)c2ccc(C)cc2)Nc2cc(F)cc(Cl)c2)CC1 (stereo not drawn) [Compound 158],< 10 µM
< 10 µM,CCOC(=O)NC1CCC(N/C(=N\C(=O)c2cccc(C)c2)Nc2cc(F)cc(Cl)c2)CC1 (stereo not drawn) [Compound 159],< 10 µM
< 10 µM,CCOC(=O)NC1CCC(N/C(=N\C(=O)c2ccc(C)c(F)c2)Nc2cc(F)cc(Cl)c2)CC1 (stereo not drawn) [Compound 160],< 10 µM
< 10 µM,CCOC(=O)NC1CCC(N/C(=N\C(=O)c2ccc(F)c(C)c2)Nc2cc(F)cc(Cl)c2)CC1 (stereo not drawn) [Compound 161],< 10 µM
> 10 µM,CC(C)(C)OC(=O)NC1CCC(NC(=NC(=O)c2ccc(Cl)cc2)NC2CCC(NC(=O)OC(C)(C)C)CC2)CC1 (stereo not drawn) [Compound 162],> 10 µM
< 10 µM,O=C(/N=C(/Nc1cc(F)cc(Cl)c1)NC1CCC(NC(=O)N2CCCC2)CC1)c1ccc(Cl)cc1 (stereo not drawn) [Compound 163],< 10 µM
< 10 µM,O=C(/N=C(/Nc1cc(F)cc(Cl)c1)NC1CCC(NC(=O)c2ccccc2)CC1)c1ccc(Cl)cc1 (stereo not drawn) [Compound 164],< 10 µM
< 10 µM,CCOC(=O)NC1CCC(N/C(=N\C(=O)c2ccc(Cl)cc2)Nc2cc(F)cc(Cl)c2)CC1 (stereo not drawn) [Compound 165],< 10 µM
< 10 µM,COC(=O)NC1CCC(N/C(=N\C(=O)c2ccc(Cl)cc2)Nc2cc(F)cc(Cl)c2)CC1 (stereo not drawn) [Compound 166],< 10 µM
< 10 µM,CC(C)(C)OC(=O)NC1CCC(N/C(=N\C(=O)c2ccc(F)c(F)c2)Nc2cc(F)cc(Cl)c2)CC1 (stereo not drawn) [Compound 167],< 10 µM
< 10 µM,O=C(/N=C(/Nc1cc(F)cc(Cl)c1)NC1CCC(NC(=O)c2nccs2)CC1)c1ccc(F)c(F)c1 (stereo not drawn) [Compound 168],< 10 µM
< 10 µM,O=C(/N=C(/Nc1cc(F)cc(Cl)c1)NC1CCC(NC(=O)c2cccnc2)CC1)c1ccc(F)c(F)c1 (stereo not drawn) [Compound 169],< 10 µM
< 10 µM,O=C(/N=C(/Nc1cc(F)cc(Cl)c1)NC1CCC(NC(=O)c2cscn2)CC1)c1ccc(F)c(F)c1 (stereo not drawn) [Compound 170],< 10 µM
< 10 µM,O=C(/N=C(/Nc1cc(F)cc(Cl)c1)NC1CCC(NC(=O)c2ccccn2)CC1)c1ccc(F)c(F)c1 (stereo not drawn) [Compound 171],< 10 µM
< 10 µM,O=C1CCC(N/C(=N\C(=O)c2ccc(C(F)(F)F)cc2)Nc2cc(F)cc(Cl)c2)CC1 [Compound 172],< 10 µM
